IC50 data for 19 compounds are collected here from patent US20260049076A1, “Tertiary Amine Substituted Bicyclic Compounds Useful as T Cell Activators” (BRISTOL-MYERS SQUIBB COMPANY, priority 2022, published 2026).

The structures appear in SMILES notation.

For one assay, the target named is T1, human DGKζ (Homo sapiens, UniProt Q13574).
T1 construct: TVMV protease cleavage site (C); Hexa-His (C); made in house; host or cells: Sf9 insect cells (baculovirus)
Briefly: In vitro DGK inhibition assay, DGKζ liposome (LIPGLO) assay. Format: biochemical. Conditions: read-out: Enzyme Inhibition DGKzeta IC50. The protocol: (§1) The DGKα and DGKζ reactions were performed using either extruded liposome (DGKα and DGKζ LIPGLO assays) or detergent/lipid micelle substrate (DGKα and DGKζ assays). The reactions were carried out in 50 mM MOPS pH 7.5, 100 mM NaCl, 10 mM MgCl2, 1 μM CaCl2, and 1 mM DTT (assay buffer). The reactions using a detergent/lipid micelle substrate also contained 50 mM octyl B-D-glucopyranoside. The lipid substrate concentrations were 11 mM PS and 1 mM DAG for the detergent/lipid micelle reactions. The lipid substrate concentrations were 2 mM PS, 0.25 mM DAG, and 2.75 mM PC for the extruded liposome reactions (5 mM total lipid). The reactions were carried out in 150 μM ATP The enzyme concentrations for the DGKα and DGKζ were 5 nM
(§2) The compound inhibition studies were carried out as follows: 25 nL (ADPGLO assay) or 50 nL (LIPGLO assay) droplets of each test compound (top concentration 10 mM with 11 point, 3-fold dilution series for each compound) solubilized in DMSO were transferred to wells of a white 1536 well plate (Corning 3725). A 5 mL enzyme/lipid substrate solution at 2× final reaction concentration was prepared by combining 2.5 mL 4× enzyme solution (20 nM DGKα, or DGKζ (prepared as described below) in assay buffer) and 2.5 mL of either 4× liposome or 4× detergent/lipid micelle solution (compositions described below) and incubated at room temperature for 10 minutes. Next, 1 μL 2× enzyme/lipid substrate solution was added to wells containing the test compound and reactions were initiated with the addition of 1 μL 300 uM ATP. The reactions were allowed to proceed for 2 hr (ADPGLO assay) or 1 hr (LIPGLO assay), after which 2 μL Glo Reagent (Promega V9101) was added and incubated for 40 minutes. Next, 4 μL Kinase Detection Reagent was added and incubated for 30 minutes. Luminescence was recorded using an EnVision microplate reader. […] The compounds were evaluated at 11 concentrations to determine IC50.
(§3) The lipid composition was 5 mol % DAG (Avanti 8008110), 40 mol % PS (Avanti 840035P), and 55 mol % PC (Avanti 850457) at a total lipid concentration of 7-8 mg/mL for the liposome solution. The PC, DAG, and PS were dissolved in chloroform, combined, and dried in vacuo to a thin film. The lipids were hydrated to 20 mM in 50 mM MOPS pH 7.5, 100 mM NaCl, 5 mM MgCl2, and were freeze-thawed five times. The lipid suspension was extruded through a 100 nm polycarbonate filter 10-12 times. […] The liposome preparation was stored at 4° C. for as long as four weeks.
(§4) The lipid composition was 5 mol % DAG (Avanti 8008110), 40 mol % PS (Avanti 840035P), and 55 mol % PC (Avanti 850457) at a total lipid concentration of 15.2 mg/mL for the 4× liposome solution. The PC, DAG, and PS were dissolved in chloroform, combined, and dried in vacuo to a thin film. The lipids were hydrated to 20 mM in 50 mM MOPS pH 7.5, 100 mM NaCl, 5 mM MgCl2, and were freeze-thawed five times. The lipid suspension was extruded through a 100 nm polycarbonate filter eleven times. […] The liposome preparation was stored at 4° C. for as long as four weeks.
(§5) Human DGK-alpha-TVMV-His-pFBgate and human DGK-zeta-transcript variant-2-TVMV-His-pFBgate baculovirus samples were generated using the Bac-to-Bac baculovirus expression system (Invitrogen) according to the manufacturer's protocol. […] Baculovirus amplification was achieved using infected Sf9 cells at 1:1500 virus/cell ratios, and grown for 65 hours at 27° C. post-transfection.
(§6) The expression scale up for each protein was carried out in the Cellbag 50L WAVE-Bioreactor System 20/50 from GE Healthcare Bioscience. 12 L of 2×10^6 cells/mL Sf9 cells (Expression System, Davis, CA) grown in ESF921 insect medium (Expression System) were infected with virus stock at 1:200 virus/cell ratios, and grown for 66-68 hours at 27° C. post-infection.

Another assay concerns the target T2, human DGKα (Homo sapiens, UniProt P23743).
T2 construct: TVMV protease cleavage site (C); Hexa-His (C); made in house; host or cells: Sf9 insect cells (baculovirus)
Briefly: In vitro DGK inhibition assay, DGKα liposome (LIPGLO) assay. It counts as biochemical. As to conditions: read-out: Enzyme Inhibition DGKalpha IC50. The method, then: as §1, §2, §3, §4, §5, §6

T2 sequence (P23743 with tags, fused parts or gaps): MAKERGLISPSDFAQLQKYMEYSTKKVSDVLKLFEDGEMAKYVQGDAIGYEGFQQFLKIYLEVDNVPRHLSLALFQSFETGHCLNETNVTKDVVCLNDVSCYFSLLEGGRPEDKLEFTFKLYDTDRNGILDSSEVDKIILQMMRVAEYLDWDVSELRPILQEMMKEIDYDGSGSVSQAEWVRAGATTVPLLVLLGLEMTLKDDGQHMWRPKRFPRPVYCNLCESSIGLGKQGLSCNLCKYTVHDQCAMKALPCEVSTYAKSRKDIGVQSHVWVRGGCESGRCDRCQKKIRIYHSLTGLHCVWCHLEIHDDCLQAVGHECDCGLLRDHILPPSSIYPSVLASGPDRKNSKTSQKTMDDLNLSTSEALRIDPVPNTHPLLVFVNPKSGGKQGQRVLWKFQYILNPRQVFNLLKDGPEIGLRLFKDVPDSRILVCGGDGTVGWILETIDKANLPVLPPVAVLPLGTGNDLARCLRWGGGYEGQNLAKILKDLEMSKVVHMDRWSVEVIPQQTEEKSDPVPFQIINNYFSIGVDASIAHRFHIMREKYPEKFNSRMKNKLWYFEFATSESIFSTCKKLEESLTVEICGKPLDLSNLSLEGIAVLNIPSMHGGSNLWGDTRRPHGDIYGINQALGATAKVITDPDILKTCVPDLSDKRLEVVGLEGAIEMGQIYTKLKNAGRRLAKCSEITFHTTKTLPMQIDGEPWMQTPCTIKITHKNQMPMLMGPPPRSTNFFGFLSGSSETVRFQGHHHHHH
T1 sequence (Q13574 with tags, fused parts or gaps isoform Q13574-4): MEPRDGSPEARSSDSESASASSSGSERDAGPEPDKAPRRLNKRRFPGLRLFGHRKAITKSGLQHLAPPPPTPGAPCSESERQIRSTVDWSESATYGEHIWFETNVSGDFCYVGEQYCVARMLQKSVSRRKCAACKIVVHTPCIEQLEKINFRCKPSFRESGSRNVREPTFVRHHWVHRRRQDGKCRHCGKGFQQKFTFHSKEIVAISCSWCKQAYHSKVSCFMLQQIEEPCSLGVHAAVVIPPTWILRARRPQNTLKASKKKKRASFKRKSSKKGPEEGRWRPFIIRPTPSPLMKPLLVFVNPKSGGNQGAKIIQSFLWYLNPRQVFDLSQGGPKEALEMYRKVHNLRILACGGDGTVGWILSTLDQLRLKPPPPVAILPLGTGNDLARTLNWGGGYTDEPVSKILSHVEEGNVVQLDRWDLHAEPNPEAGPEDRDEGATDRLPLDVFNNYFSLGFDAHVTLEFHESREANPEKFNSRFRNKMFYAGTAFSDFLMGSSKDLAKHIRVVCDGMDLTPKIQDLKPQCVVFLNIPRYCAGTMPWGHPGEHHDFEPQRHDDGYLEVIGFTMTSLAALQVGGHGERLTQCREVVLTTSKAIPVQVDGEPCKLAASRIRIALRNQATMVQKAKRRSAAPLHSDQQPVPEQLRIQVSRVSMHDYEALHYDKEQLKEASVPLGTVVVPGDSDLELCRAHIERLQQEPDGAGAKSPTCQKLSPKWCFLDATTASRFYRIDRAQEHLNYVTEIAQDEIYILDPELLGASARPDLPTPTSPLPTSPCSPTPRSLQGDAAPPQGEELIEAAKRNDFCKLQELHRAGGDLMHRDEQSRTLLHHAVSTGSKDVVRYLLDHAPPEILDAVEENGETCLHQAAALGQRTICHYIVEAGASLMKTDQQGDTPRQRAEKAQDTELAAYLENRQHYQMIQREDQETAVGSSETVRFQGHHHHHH

In the case of `COCc1ccccc1N(CC1CC1)c1cc(=O)n(C)c2ccc(C#N)nc12` [Example 67, 8-((cyclopropylmethyl)(2-(methoxymethyl)phenyl)amino)-5-methyl-6-oxo-5,6-dihydro-1,5-naphthyridine-2-carbonitrile], the values for the IC50 on human DGKζ and on human DGKα were 21 µM and 4.5 µM, respectively.

As for `Cc1ccc(-c2ccc(N(CC3CC3)c3cc(=O)n(C)c4ccc(C#N)nc34)cc2)cc1` [Example 69, 8-((cyclopropylmethyl)(4′-methyl-[1,1′-biphenyl]-4-yl)amino)-5-methyl-6-oxo-5,6-dihydro-1,5-naphthyridine-2-carbonitrile], the IC50 on human DGKζ was found to be 7.5 µM; at human DGKα it was 5.5 µM.

On to `Cn1c(=O)cc(N(CC2CC2)c2cccc(-c3ccccc3)c2)c2nc(C#N)ccc21` [Example 70, 8-([1,1′-biphenyl]-3-yl(cyclopropylmethyl)amino)-5-methyl-6-oxo-5,6-dihydro-1,5-naphthyridine-2-carbonitrile], for which the IC50 came to 27 µM on human DGKζ and 0.17 µM on human DGKα.

Turning to `Cn1c(=O)cc(N(CC2CC2)c2cccc(-c3ccc(Cl)cc3)c2)c2nc(C#N)ccc21` [Example 71, 8-((4′-chloro-[1,1′-biphenyl]-3-yl)(cyclopropylmethyl)amino)-5-methyl-6-oxo-5,6-dihydro-1,5-naphthyridine-2-carbonitrile], the concentration for half-maximal inhibition (IC50) on human DGKζ was 15 µM; at human DGKα, 0.14 µM.

For the compound `COc1ccc(-c2ccc(N(CC3CC3)c3cc(=O)n(C)c4ccc(C#N)nc34)cc2)cc1` [Example 73, 8-((cyclopropylmethyl)(4′-methoxy-[1,1′-biphenyl]-4-yl)amino)-5-methyl-6-oxo-5,6-dihydro-1,5-naphthyridine-2-carbonitrile], the IC50 at human DGKζ came out at 2 µM; on human DGKα, 5.3 µM.

For the compound `Cc1cccc(-c2ccc(N(CC3CC3)c3cc(=O)n(C)c4ccc(C#N)nc34)cc2)c1` [Example 74, 8-((cyclopropylmethyl)(3′-methyl-[1,1′-biphenyl]-4-yl)amino)-5-methyl-6-oxo-5,6-dihydro-1,5-naphthyridine-2-carbonitrile], the values for the concentration for half-maximal inhibition (IC50) at human DGKζ and at human DGKα were 1.5 µM and 6.2 µM, respectively.

For the compound `Cc1ccccc1-c1ccc(N(CC2CC2)c2cc(=O)n(C)c3ccc(C#N)nc23)cc1` [Example 75, 8-((cyclopropylmethyl)(2′-methyl-[1,1′-biphenyl]-4-yl)amino)-5-methyl-6-oxo-5,6-dihydro-1,5-naphthyridine-2-carbonitrile], the half-inhibitory concentration (IC50) came to 0.88 µM at human DGKζ and 3.3 µM on human DGKα.

For `Cn1c(=O)cc(N(CC2CC2)c2ccc(-c3cccc(Cl)c3)cc2)c2nc(C#N)ccc21` [Example 76, 8-((3′-chloro-[1,1′-biphenyl]-4-yl)(cyclopropylmethyl)amino)-5-methyl-6-oxo-5,6-dihydro-1,5-naphthyridine-2-carbonitrile], the 50% inhibitory concentration (IC50) at human DGKζ worked out at 2.1 µM; at human DGKα it was 6.2 µM.

On to `COc1cccc(-c2ccc(N(CC3CC3)c3cc(=O)n(C)c4ccc(C#N)nc34)cc2)c1` [Example 77, 8-((cyclopropylmethyl)(3′-methoxy-[1,1′-biphenyl]-4-yl)amino)-5-methyl-6-oxo-5,6-dihydro-1,5-naphthyridine-2-carbonitrile], for which the IC50 on human DGKζ was 4 µM; at human DGKα it was 9.5 µM.

Take `Cn1c(=O)cc(N(CC2CC2)c2ccc(-c3ccccc3O)cc2)c2nc(C#N)ccc21` [Example 80, 8-((cyclopropylmethyl)(2′-hydroxy-[1,1′-biphenyl]-4-yl)amino)-5-methyl-6-oxo-5,6-dihydro-1,5-naphthyridine-2-carbonitrile]: the IC50 is 1.3 µM on human DGKζ and 6.3 µM at human DGKα.

Take `Cn1c(=O)cc(N(CC2CC2)c2ccc(-c3cccc(O)c3)cc2)c2nc(C#N)ccc21` [Example 81, 8-((cyclopropylmethyl)(3′-hydroxy-[1,1′-biphenyl]-4-yl)amino)-5-methyl-6-oxo-5,6-dihydro-1,5-naphthyridine-2-carbonitrile]: the IC50 on human DGKζ was 3.7 µM; at human DGKα, 3.8 µM.

As for `CN(C)C(=O)c1ccc(-c2ccc(N(CC3CC3)c3cc(=O)n(C)c4ccc(C#N)nc34)cc2)cc1` [Example 82, 4′-((6-cyano-1-methyl-2-oxo-1,2-dihydro-1,5-naphthyridin-4-yl) (cyclopropylmethyl)amino)-N,N-dimethyl-[1,1′-biphenyl]-4-carboxamide], the IC50 worked out at 2 µM at human DGKζ and 3.8 µM on human DGKα.

In the case of `Cn1c(=O)cc(N(CC2CC2)c2ccc(-c3cccc(C(N)=O)c3)cc2)c2nc(C#N)ccc21` [Example 84, 4′-((6-cyano-1-methyl-2-oxo-1,2-dihydro-1,5-naphthyridin-4-yl)(cyclopropylmethyl)amino)-[1,1′-biphenyl]-3-carboxamide], the results for the IC50 on human DGKζ and at human DGKα were 7.6 µM and 18 µM, respectively.

With `Cn1c(=O)cc(N(CC2CC2)c2ccc(-c3cccc(CNS(C)(=O)=O)c3)cc2)c2nc(C#N)ccc21` [Example 85, N-((4′-((6-cyano-1-methyl-2-oxo-1,2-dihydro-1,5-naphthyridin-4-yl) (cyclopropylmethyl)amino)-[1,1′-biphenyl]-3-yl)methyl)methanesulfonamide], the results for the IC50 at human DGKζ and at human DGKα were 4 µM and 5.6 µM, respectively.

With `CN(C)c1ccc(-c2ccc(N(CC3CC3)c3cc(=O)n(C)c4ccc(C#N)nc34)cc2)cc1` [Example 87, 8-((cyclopropylmethyl)(4′-(dimethylamino)-[1,1′-biphenyl]-4-yl)amino)-5-methyl-6-oxo-5,6-dihydro-1,5-naphthyridine-2-carbonitrile], the figures for the half-maximal inhibitory concentration (IC50) at human DGKζ and at human DGKα were 2 µM and 1.1 µM, respectively.

`CN(C)C(=O)c1cccc(-c2ccc(N(CC3CC3)c3cc(=O)n(C)c4ccc(C#N)nc34)cc2)c1` [Example 88, 4′-((6-cyano-1-methyl-2-oxo-1,2-dihydro-1,5-naphthyridin-4-yl)(cyclopropylmethyl)amino)-N,N-dimethyl-[1,1′-biphenyl]-3-carboxamide]: the IC50 was 0.88 µM on human DGKζ and 3.2 µM at human DGKα.

For the compound `CN(C)c1cccc(-c2ccc(N(CC3CC3)c3cc(=O)n(C)c4ccc(C#N)nc34)cc2)c1` [Example 89, 8-((cyclopropylmethyl)(3′-(dimethylamino)-[1,1′-biphenyl]-4-yl)amino)-5-methyl-6-oxo-5,6-dihydro-1,5-naphthyridine-2-carbonitrile], the IC50 on human DGKζ is 0.92 µM; on human DGKα it was 2.5 µM.

With `COc1cc(-c2ccc(N(CC3CC3)c3cc(=O)n(C)c4ccc(C#N)nc34)cc2)ccn1` [Example 90, 8-((cyclopropylmethyl)(4-(2-methoxypyridin-4-yl)phenyl)amino)-5-methyl-6-oxo-5,6-dihydro-1,5-naphthyridine-2-carbonitrile], the concentration for half-maximal inhibition (IC50) was 5 µM on human DGKζ and 12 µM on human DGKα.

Turning to `COc1ccc(-c2cccc(N(CC3CC3)c3cc(=O)n(C)c4ccc(C#N)nc34)c2)cc1` [Example 91, 8-((cyclopropylmethyl)(4′-methoxy-[1,1′-biphenyl]-3-yl)amino)-5-methyl-6-oxo-5,6-dihydro-1,5-naphthyridine-2-carbonitrile], the figures for the IC50 on human DGKζ and at human DGKα were 3.2 µM and 0.023 µM, respectively.
